Read-outs that look alike come from different tables or passages of the source. Residues, ends and D or L forms follow the SMILES beside them.
Key:
[1] = Identification threshold values (cts) of sweeteners (triangle test) and comparison with sucrose; design: species or system persons; settings: for Identification Threshold Values (cts): tap water, pH 6-7 if necessary with NaOH, 5 persons, triangle test, 1 ml samples; for f suc, mol (cts): compound, sweetening power relative to sucrose, molar
Method: These sensory investigations were conducted by 5 persons; all samples were encoded by a person not participating in the test. […] Consecutive samples of 1 ml were consumed. The approximate concentration values determined in a preliminary test were inserted, in the main experiment, in the middle of a dilution series. All solutions of a compound were encoded with two water samples (triangle test). The testers must indicate which of the three samples of decreasing concentration are considered to be sweet. The identification threshold value is set forth to be the lowest concentration range (cts) at which the testers still render a correct judgment.

[2] = in vivo; settings: mouse, ip
[3] = General taste evaluation of aqueous solutions in concentration stages 1-8 (blind taste test); design: species or system healthy volunteers; settings: average results of 3 taste tests
Method: The following concentrations correspond to the 8 concentration stages tested:
(§1) The taste tests were conducted by three healthy volunteers; the solutions were coded by letter-number combinations and randomized so that the tester could not know which compound he or she tasted. Also the reference solution (5% sucrose) remained part of the randomizing plan initially, for the purpose of general taste characteristics of the compounds.

[4] = tested on: mice; settings: for Number of Dead Animals/Number of Animals Utilized: mice, intraperitoneal
[5] = Degree of sweetening compared with 5% sucrose solution (taste test); design: species or system healthy volunteers; settings: times the sweetening power of sucrose (sucrose = 1), average of 3 taste tests
Method: as §1

[6] = literature (Hager's Manual), b158: also determined by all three testers in a blind taste test, cited from earlier work

## NC(=O)c1c(Cl)cc(Cl)c(CCC(=O)O)c1Cl [G, 3-(3-carbamoyl-2,4,6-trichlorophenyl)propionic acid]
[1]
  Identification Threshold Values (cts): 2.5 to 4.0 µmol/L

## NC(=O)c1c(I)cc(I)c(OCC(=O)O)c1I [F, 3-carbamoyl-2,4,6-triiodophenoxyacetic acid]
[1]
  Identification Threshold Values (cts): 15 to 25 µmol/L

## COC(=O)[C@H](Cc1ccccc1)NC(=O)[C@@H](N)CC(=O)O [Aspartame] (H-Asp-Phe-OMe)
[1]
  f suc, mol (cts): 275
  Identification Threshold Values (cts): 20 to 60 µmol/L

## NC(=O)c1c(Br)cc(Br)c(CCC(=O)O)c1Br [A, 3-(3-carbamoyl-2,4,6-tribromophenyl)propionic acid]
[2]
  LD50: ~6000 mg/kg
[3]; 0.781 mg/100 ml (1/6400 of 5% sucrose)
  General Taste Evaluation, concentration stage 7: Sweet
[3]; 1.563 mg/100 ml (1/3200 of 5% sucrose)
  General Taste Evaluation, concentration stage 6: Sweet
[1]
  Identification Threshold Values (cts): 0.6 to 1.4 µmol/L
[4]; intraperitoneal injection in mice
  General compatibility: approximately the same good compatibility as sodium saccharin
[4]; 3.0 g/kg BW
  Number of Dead Animals/Number of Animals Utilized: 2/10
[4]; 6.0 g/kg BW
  Number of Dead Animals/Number of Animals Utilized: 6/10
[4]; 9.0 g/kg BW
  Number of Dead Animals/Number of Animals Utilized: 10/10
[5]
  Degree of Sweetening: 6000-7000

## OC[C@H]1O[C@@](CO)(O[C@H]2O[C@H](CO)[C@@H](O)[C@H](O)[C@H]2O)[C@@H](O)[C@@H]1O [Sucrose]
[1]
  f suc, mol (cts): 1
  Identification Threshold Values (cts): 10000 to 12000 µmol/L
[5]
  Degree of Sweetening: 1

## O=C1NS(=O)(=O)c2ccccc21.[Na] [Sodium Saccharin]
[3]; 25.0 mg/100 ml (1/200 of 5% sucrose)
  General Taste Evaluation, concentration stage 2: Sweet
[3]; 50.0 mg/100 ml (1/100 of 5% sucrose)
  General Taste Evaluation, concentration stage 1: Sweet
[1]
  f suc, mol (cts): 489
  Identification Threshold Values (cts): 15 to 30 µmol/L
[4]; 3.0 g/kg BW
  Number of Dead Animals/Number of Animals Utilized: 0/10
[4]; 6.0 g/kg BW
  Number of Dead Animals/Number of Animals Utilized: 5/10
[5]
  Degree of Sweetening: 400
[6]
  Degree of sweetening known from the literature: 400

## CCOc1ccc(NC(N)=O)cc1 [Dulcin]
[1]
  f suc, mol (cts): 489
  Identification Threshold Values (cts): 15 to 30 µmol/L

## NC(=O)c1c(I)cc(I)c(CCC(=O)O)c1I [E, 3-(3-carbamoyl-2,4,6-triiodophenyl)propionic acid]
[1]
  Identification Threshold Values (cts): 1.0 to 2.0 µmol/L

## O=S(=O)(O)NC1CCCCC1 [Cyclamate]
[1]
  f suc, mol (cts): 5.5
  Identification Threshold Values (cts): 1000 to 3000 µmol/L
[5]
  Degree of Sweetening: < 100
[6]
  Degree of sweetening known from the literature: 30-70
[6]; listed as Sodium cyclamate
  Degree of sweetening known from the literature: 70
